Results reported in PubChem BioAssay (NCI).
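Each compound was tested at five concentrations against cells in 96-well plates for 48 hours. The concentration for 50% growth inhibition is given as GI50. TGI: concentration producing complete growth inhibition.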

Tests used:
Assay in all cases: growth of human tumour cells (NCI), 48 h
NCI-H23 lung = test system: NCI-H23 lung
NCI-H460 lung = test system: NCI-H460 lung
NCI-H522 lung = test system: NCI-H522 lung
NCI/ADR-RES ovarian = test system: NCI/ADR-RES ovarian
OVCAR-3 ovarian = test system: OVCAR-3 ovarian
OVCAR-4 ovarian = test system: OVCAR-4 ovarian
OVCAR-5 ovarian = test system: OVCAR-5 ovarian
OVCAR-8 ovarian = test system: OVCAR-8 ovarian
PC-3 prostate = test system: PC-3 prostate
RPMI-8226 leukemia = test system: RPMI-8226 leukemia
RXF 393 renal = test system: RXF 393 renal
SF-268 CNS = test system: SF-268 CNS
SF-295 CNS = test system: SF-295 CNS
SF-539 CNS = test system: SF-539 CNS
SK-MEL-2 melanoma = test system: SK-MEL-2 melanoma
SK-MEL-28 melanoma = test system: SK-MEL-28 melanoma
SK-MEL-5 melanoma = test system: SK-MEL-5 melanoma
SK-OV-3 ovarian = test system: SK-OV-3 ovarian
SN12C renal = test system: SN12C renal
SNB-19 CNS = test system: SNB-19 CNS
SNB-75 CNS = test system: SNB-75 CNS
SR leukemia = test system: SR leukemia
SW-620 colon = test system: SW-620 colon
T-47D breast = test system: T-47D breast
TK-10 renal = test system: TK-10 renal
U251 CNS = test system: U251 CNS
UACC-257 melanoma = test system: UACC-257 melanoma
UACC-62 melanoma = test system: UACC-62 melanoma
UO-31 renal = test system: UO-31 renal

`N#Cc1ccc(/C=N/NC(=O)c2[nH]c3ccc(Br)cc3c2-c2ccccc2)s1` was tested, and the TGI (NCI-H23 lung) was 12 µM, the GI50 (NCI-H460 lung) was 340 nM and the TGI (NCI-H460 lung) was 2250 nM. The GI50 (NCI-H522 lung) was 78.5 nM, the TGI (NCI-H522 lung) was 262 nM and the GI50 (NCI/ADR-RES ovarian) was 118 nM. The TGI (NCI/ADR-RES ovarian) was 2090 nM, the GI50 (OVCAR-3 ovarian) was 367 nM and the TGI (OVCAR-3 ovarian) was 15.7 µM. It also gave a GI50 (OVCAR-4 ovarian) of 783 nM, a TGI (OVCAR-4 ovarian) of 30.2 µM and a GI50 (OVCAR-5 ovarian) of 439 nM. The TGI (OVCAR-5 ovarian) was 24.6 µM, the GI50 (OVCAR-8 ovarian) was 204 nM and the TGI (OVCAR-8 ovarian) was 2190 nM. It also gave a GI50 (PC-3 prostate) of 304 nM, a TGI (PC-3 prostate) of 12.3 µM and a GI50 (RPMI-8226 leukemia) of 149 nM. It also gave a TGI (RPMI-8226 leukemia) of over 20.9 µM, a GI50 (RXF 393 renal) of 222 nM and a TGI (RXF 393 renal) of 487 nM. The GI50 (SF-268 CNS) was 1580 nM, the TGI (SF-268 CNS) was over 64.9 µM and the GI50 (SF-295 CNS) was 41.4 nM. It also gave a TGI (SF-295 CNS) of 2330 nM, a GI50 (SF-539 CNS) of 87.8 nM and a TGI (SF-539 CNS) of 543 nM. For the same molecule, the GI50 (SK-MEL-2 melanoma) was 451 nM, the TGI (SK-MEL-2 melanoma) was 16.2 µM and the GI50 (SK-MEL-28 melanoma) was 847 nM. The TGI (SK-MEL-28 melanoma) was over 37.4 µM, the GI50 (SK-MEL-5 melanoma) was 272 nM and the TGI (SK-MEL-5 melanoma) was 1230 nM. For the same molecule, the GI50 (SK-OV-3 ovarian) was 993 nM, the TGI (SK-OV-3 ovarian) was 15.3 µM and the GI50 (SN12C renal) was 227 nM. It also gave a TGI (SN12C renal) of 6.33 µM, a GI50 (SNB-19 CNS) of 439 nM and a TGI (SNB-19 CNS) of 16.7 µM. The GI50 (SNB-75 CNS) was 630 nM, the TGI (SNB-75 CNS) was 5.36 µM and the GI50 (SR leukemia) was 99.2 nM. For the same molecule, the TGI (SR leukemia) was over 38.8 µM, the GI50 (SW-620 colon) was 182 nM and the TGI (SW-620 colon) was 14.9 µM. The GI50 (T-47D breast) was 2460 nM, the TGI (T-47D breast) was 27.3 µM and the GI50 (TK-10 renal) was 1930 nM. It also gave a TGI (TK-10 renal) of 23.8 µM, a GI50 (U251 CNS) of 312 nM and a TGI (U251 CNS) of 5.79 µM. For the same molecule, the GI50 (UACC-257 melanoma) was 344 nM, the TGI (UACC-257 melanoma) was 12.9 µM and the GI50 (UACC-62 melanoma) was 139 nM. The TGI (UACC-62 melanoma) was 6.99 µM, the GI50 (UO-31 renal) was 275 nM and the TGI (UO-31 renal) was 17.6 µM.
